The test system of one data set is Sphaerotheca fuliginea. The data set can be described thus: Sphaerotheca test (cucumber)/preventive. It counts as in vivo. To be noted: 500 ppm, preventive, evaluated 7 days after inoculation.
The subject of the next data set is Phakopsora pachyrhizi. The experiment in a line: Phakopsora test (soybeans)/protective. It counts as in vivo. The following applies: 250 ppm, protective, evaluated 11 days after inoculation.
The test system of another data set is Botrytis cinerea. The experiment in a line: Botrytis test (beans)/preventive. The following applies: 100 ppm, preventive, lesion size 2 days after inoculation.
A short description of data set [1]: logP by HPLC on reversed-phase column (EEC Directive 79/831 Annex V.A8). The following applies: HPLC on reversed-phase column (C 18), EEC Directive 79/831 Annex V.A8.
A further data set concerns Rhizoctonia solani. The experiment in a line: Rhizoctonia test (rice)/protective. Format: in vivo. The following applies: 250 ppm, protective, evaluated 4 days after inoculation. As to the method:
Rhizoctonia Test (Rice)/Protective
Solvent: 28.5 parts by weight of acetone
Emulsifier: 1.5 part by weight of alkylaryl polyglycol ether
1 day after the treatment, the plants are inoculated with hyphae of Rhizoctonia solani.
Evaluation is carried out 4 days after the inoculation.

In a further data set the test system is Alternaria solani. The experiment in a line: Alternaria test (tomato)/preventive. To be noted: 500 ppm, preventive, evaluated 7 days after inoculation. It counts as in vivo.
A further data set relates to Pyrenophora teres. The data set can be described thus: Pyrenophora teres-test (barley)/preventive. It counts as in vivo. The following applies: 500 ppm, preventive, evaluated 8 days after inoculation.
Data set [2] has as its system Fusarium nivale (var. majus). The data set can be described thus: Fusarium nivale (var. majus)-test (wheat)/preventive. To be noted: preventive, evaluated 5 days after inoculation.
Another data set relates to Septoria tritici. The experiment in a line: Septoria tritici-test (wheat)/preventive. Format: in vivo. To be noted: 500 ppm, preventive, evaluated 21 days after inoculation.
Another data set relates to Puccinia triticina. The experiment in a line: Puccinia triticina-test (wheat)/preventive. It counts as in vivo. To be noted: 500 ppm, preventive, evaluated 8 days after inoculation.
The next data set concerns Pyricularia oryzae. It counts as in vivo.
For the next data set, the system named is Cochliobolus miyabeanus. The experiment in a line: Cochliobolus test (rice)/protective. It counts as in vivo. To be noted: 250 ppm, protective, evaluated 4 days after inoculation.
A further data set has as its system Uromyces appendiculatus. The following applies: 100 ppm, beans, preventive, evaluated 10 days after inoculation.
For a further data set, the system named is Venturia inaequalis. The data set can be described thus: Venturia test (apples)/preventive. To be noted: 100 ppm, preventive, evaluated 10 days after inoculation.

Structures are written as SMILES. Like-named read-outs stand apart in the source and are kept apart here.

For `CC(C)C1C2CCC1c1c(NC(=O)c3c(C(F)F)nn(C)c3F)cccc12` (stereo not drawn) [Example 66], the Efficacy stood at 100% in the data set on Sphaerotheca fuliginea; 98% in the data set with Phakopsora pachyrhizi; 99% with Botrytis cinerea; 100% in the data set on Rhizoctonia solani; 100% in the data set with Alternaria solani; 100% with Pyrenophora teres. The Efficacy is 93% in data set [2] (250 ppm); 86% in data set [2] (500 ppm); 100% with Septoria tritici; 100% in the data set with Puccinia triticina; 100% in the data set with Pyricularia oryzae (in vivo); 93% in the data set with Cochliobolus miyabeanus. Moreover, the Efficacy with Uromyces appendiculatus and with Venturia inaequalis was 100% throughout. Further, the logP – broadly, a log measure of how a compound divides between an organic and an aqueous phase – in [1] amounted to 4.41.
As for `Cn1nc(C(F)F)c(C(=O)Nc2ccccc2CCC(C)(C)C)c1F` [Example 13], the Efficacy in the data set on Sphaerotheca fuliginea was found to be 100%; with Phakopsora pachyrhizi, 98%; with Botrytis cinerea it was 94%; in the data set with Rhizoctonia solani, 100%; with Alternaria solani it was 100%; with Pyrenophora teres, 100%. The Efficacy in [2] (500 ppm) stood at 100%; with Septoria tritici, 100%; in the data set on Puccinia triticina it was 100%; in the data set on Pyricularia oryzae (in vivo) it was 97%; in the data set with Cochliobolus miyabeanus it was 85%; in the data set with Uromyces appendiculatus, 100%. The compound further came in with an Efficacy with Venturia inaequalis of 100%. In data set [1], this compound came in with a logP of 3.83.
Consider `Cn1nc(C(F)F)c(C(=O)Nc2ccccc2CCC(C)(C)C)c1Cl` [Example 14], for which the Efficacy stood at 98% in the data set with Phakopsora pachyrhizi; 99% in the data set on Botrytis cinerea; 100% in the data set on Rhizoctonia solani; 100% with Pyrenophora teres; 100% in data set [2] (500 ppm); 93% with Septoria tritici. In addition, the Efficacy in the data set with Puccinia triticina came to 100%; in the data set with Pyricularia oryzae (250 ppm, rice, protective, evaluated 5 days after inoculation), 98%; with Cochliobolus miyabeanus, 90%; with Uromyces appendiculatus it was 100%; in the data set on Venturia inaequalis, 100%. In addition, the chromatographic logP (commonly a lipophilicity value derived from retention on a column) in “physchem” (logP (acidic), HPLC, 0.1% aqueous formic acid/acetonitrile) amounted to 4.01; in the data set “physchem” (logP, HPLC on reversed-phase column (C 18), EEC Directive 79/831 Annex V.A8), 4.1.

The values are drawn from patent US9375004B2 (Bayer Intellectual Property GmbH, priority 2010, dated 2016).
